Results reported in publication PMC6756013, “B591, a novel specific pan-PI3K inhibitor, preferentially targets cancer stem cells” (Oncogene, 2019).

How the values were obtained:
Test in all cases: Biochemical kinase profiling (Life Technologies)
FGFR4 = biological target: T1, FGFR4 (Homo sapiens, UniProt P22455)
T1 construct: purchased Life Technologies
Description: (§1) Purified PI3K Class I Lipid Kinase, including p110α/p85α, p110β/p85α, p110γ, and p110δ/p85α (Promega, Madison, WI, USA), was respectively incubated with B591 for 30 min at room temperature. The activity of PI3K was evaluated using a PI3-Kinase Activity ELISA kit (K-1000s, Echelon, Salt Lake City, UT, USA) according to the manufacture’s instructions. The assay is a competitive ELISA in which the signal is inversely proportional to the amount of PI(3,4,5)P3 produced. After the PI3-Kinase reactions are complete, reaction products are first mixed and incubated with a PI(3,4,5)P3 detector protein, then added to the PI(3,4,5)P3-coated microplate for competitive binding. A peroxidase-linked secondary detector and colorimetric detection is used to detect PI(3,4,5)P3 detector binding to the plate. The colorimetric signal is inversely proportional to the amount of PI(3,4,5)P3 produced by PI3-Kinase. The absorbance was measured at 450 nm with a Multilabel Reader (PerkinElmer, Waltham, MA, USA). ATP competition assays were executed with varying concentrations of ATP, and five concentrations of ATP were 5 μM, 25 μM, 50 μM, 100 μM, and 200 μM respectively. The IC50 values for inhibition of PI3Kβ by B591 were determined at indicated concentrations of ATP. In addition, B591 selectivity was tested against 39 kinases at Life Technologies.

PIK3C2A (PI3K-C2 alpha) = PIK3C2A (PI3K-C2 alpha) (Homo sapiens, UniProt O00443)
Description: as §1

PDGFRB (PDGFR beta) = biological target: T2, PDGFRB (PDGFR beta) (Homo sapiens, UniProt P09619)
T2 construct: purchased Life Technologies
Description: as §1

EPHB1 = biological target: T3, EPHB1 (Homo sapiens, UniProt P54762)
T3 construct: purchased Life Technologies
Description: as §1

PRKCQ (PKC theta) = PRKCQ (PKC theta) (Homo sapiens, UniProt Q04759)
PRKCQ (PKC theta), sequence (Q04759 whole entry): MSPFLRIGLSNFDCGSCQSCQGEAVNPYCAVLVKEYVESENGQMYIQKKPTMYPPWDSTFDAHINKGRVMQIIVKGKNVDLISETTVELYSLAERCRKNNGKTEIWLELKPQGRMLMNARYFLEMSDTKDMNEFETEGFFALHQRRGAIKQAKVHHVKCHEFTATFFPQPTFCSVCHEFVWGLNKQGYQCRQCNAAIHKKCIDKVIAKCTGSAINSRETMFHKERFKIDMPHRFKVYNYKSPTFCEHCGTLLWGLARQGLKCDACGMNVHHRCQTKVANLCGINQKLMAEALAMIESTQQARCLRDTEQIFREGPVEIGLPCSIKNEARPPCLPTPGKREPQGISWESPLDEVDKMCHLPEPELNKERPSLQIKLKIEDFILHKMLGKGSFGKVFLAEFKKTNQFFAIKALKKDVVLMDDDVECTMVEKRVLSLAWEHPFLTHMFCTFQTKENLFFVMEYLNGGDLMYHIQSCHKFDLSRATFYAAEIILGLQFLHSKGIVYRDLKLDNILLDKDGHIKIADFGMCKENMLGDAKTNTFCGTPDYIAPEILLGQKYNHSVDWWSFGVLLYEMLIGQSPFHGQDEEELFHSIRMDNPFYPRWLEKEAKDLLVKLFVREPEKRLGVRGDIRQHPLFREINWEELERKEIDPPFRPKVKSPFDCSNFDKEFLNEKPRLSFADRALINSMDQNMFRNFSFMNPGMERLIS
Description: as §1

EPHA2 = biological target: T4, EPHA2 (Homo sapiens, UniProt P29317)
T4 construct: purchased Life Technologies
Description: as §1

PTK2 (FAK) = PTK2 (FAK) (Homo sapiens, UniProt Q05397)
Description: as §1

PRKCZ (PKC zeta) = biological target: T5, PRKCZ (PKC zeta) (Homo sapiens, UniProt Q05513)
T5 construct: purchased Life Technologies
T5 sequence (Q05513 whole entry): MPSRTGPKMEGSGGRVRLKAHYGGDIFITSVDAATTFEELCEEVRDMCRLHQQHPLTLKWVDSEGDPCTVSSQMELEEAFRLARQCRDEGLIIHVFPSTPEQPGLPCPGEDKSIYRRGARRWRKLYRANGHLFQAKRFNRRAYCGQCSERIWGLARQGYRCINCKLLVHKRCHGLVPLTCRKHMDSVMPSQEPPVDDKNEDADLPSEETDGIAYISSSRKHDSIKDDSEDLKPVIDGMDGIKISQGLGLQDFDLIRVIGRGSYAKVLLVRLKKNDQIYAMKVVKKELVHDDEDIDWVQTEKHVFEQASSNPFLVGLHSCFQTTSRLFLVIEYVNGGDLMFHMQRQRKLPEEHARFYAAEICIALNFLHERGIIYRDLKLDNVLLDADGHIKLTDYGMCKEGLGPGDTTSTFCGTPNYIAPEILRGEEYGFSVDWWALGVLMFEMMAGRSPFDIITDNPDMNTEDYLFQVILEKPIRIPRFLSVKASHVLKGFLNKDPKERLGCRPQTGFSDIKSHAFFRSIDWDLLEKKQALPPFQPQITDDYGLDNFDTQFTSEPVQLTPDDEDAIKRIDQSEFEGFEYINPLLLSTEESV
Description: as §1

JAK1 = JAK1 (Homo sapiens, UniProt P23458)
Description: as §1

AMPK A2/B1/G1 = AMPK A2/B1/G1 (Homo sapiens, UniProt P54619+P54646+Q9Y478)
Description: as §1

FGFR2 = biological target: T6, FGFR2 (Homo sapiens, UniProt P21802)
T6 construct: purchased Life Technologies
Description: as §1

EPHA8 = biological target: T7, EPHA8 (Homo sapiens, UniProt P29322)
T7 construct: purchased Life Technologies
Description: as §1

SRC = biological target: T8, SRC (Homo sapiens, UniProt P12931)
T8 construct: purchased Life Technologies
Description: as §1

PIK3C3 (hVPS34) = PIK3C3 (hVPS34) (Homo sapiens, UniProt Q8NEB9)
Description: as §1

FRAP1 (mTOR) = FRAP1 (mTOR) (Homo sapiens, UniProt P42345)
Description: as §1

KDR (VEGFR2) = biological target: T9, KDR (VEGFR2) (Homo sapiens, UniProt P35968)
T9 construct: purchased Life Technologies
Description: as §1

EPHA1 = biological target: T10, EPHA1 (Homo sapiens, UniProt P21709)
T10 construct: purchased Life Technologies
Description: as §1

GSK3B (GSK3 beta) = GSK3B (GSK3 beta) (Homo sapiens, UniProt P49841)
GSK3B (GSK3 beta), sequence (P49841 whole entry): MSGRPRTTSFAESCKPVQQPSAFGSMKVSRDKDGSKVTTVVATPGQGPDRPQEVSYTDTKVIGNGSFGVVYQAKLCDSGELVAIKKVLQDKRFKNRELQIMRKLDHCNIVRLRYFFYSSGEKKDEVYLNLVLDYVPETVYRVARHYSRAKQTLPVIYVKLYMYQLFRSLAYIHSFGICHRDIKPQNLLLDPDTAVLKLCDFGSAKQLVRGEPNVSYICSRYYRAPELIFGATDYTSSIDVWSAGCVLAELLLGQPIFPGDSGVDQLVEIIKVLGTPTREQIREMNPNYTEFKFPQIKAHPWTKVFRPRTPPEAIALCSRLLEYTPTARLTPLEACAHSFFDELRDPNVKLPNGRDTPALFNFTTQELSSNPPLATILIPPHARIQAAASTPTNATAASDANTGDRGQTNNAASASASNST
Description: as §1

LYN B = LYN B (Homo sapiens, UniProt P07948)
LYN B, sequence (P07948 1-491 isoform P07948-2): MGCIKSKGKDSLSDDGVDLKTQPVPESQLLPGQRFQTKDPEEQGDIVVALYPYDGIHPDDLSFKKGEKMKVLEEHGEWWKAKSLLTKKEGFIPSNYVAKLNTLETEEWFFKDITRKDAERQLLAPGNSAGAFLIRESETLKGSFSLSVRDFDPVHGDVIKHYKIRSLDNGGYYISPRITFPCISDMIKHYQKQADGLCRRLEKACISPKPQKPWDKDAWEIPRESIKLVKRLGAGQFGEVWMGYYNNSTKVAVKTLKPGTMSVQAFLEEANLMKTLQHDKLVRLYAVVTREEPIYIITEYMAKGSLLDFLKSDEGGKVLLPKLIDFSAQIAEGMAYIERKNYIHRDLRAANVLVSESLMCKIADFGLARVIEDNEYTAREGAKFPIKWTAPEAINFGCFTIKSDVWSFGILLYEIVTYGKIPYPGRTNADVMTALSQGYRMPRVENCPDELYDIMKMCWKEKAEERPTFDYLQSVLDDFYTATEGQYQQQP
Description: as §1

FGFR3 = biological target: T11, FGFR3 (Homo sapiens, UniProt P22607)
T11 construct: purchased Life Technologies
Description: as §1

RPS6KB1 (p70S6K) = biological target: T12, RPS6KB1 (p70S6K) (Homo sapiens, UniProt P23443)
T12 construct: purchased Life Technologies
Description: as §1

PDGFRA (PDGFR alpha) = biological target: T13, PDGFRA (PDGFR alpha) (Homo sapiens, UniProt P16234)
T13 construct: purchased Life Technologies
Description: as §1

PIK3C2B (PI3K-C2 beta) = PIK3C2B (PI3K-C2 beta) (Homo sapiens, UniProt O00750)
PIK3C2B (PI3K-C2 beta), sequence (O00750 whole entry): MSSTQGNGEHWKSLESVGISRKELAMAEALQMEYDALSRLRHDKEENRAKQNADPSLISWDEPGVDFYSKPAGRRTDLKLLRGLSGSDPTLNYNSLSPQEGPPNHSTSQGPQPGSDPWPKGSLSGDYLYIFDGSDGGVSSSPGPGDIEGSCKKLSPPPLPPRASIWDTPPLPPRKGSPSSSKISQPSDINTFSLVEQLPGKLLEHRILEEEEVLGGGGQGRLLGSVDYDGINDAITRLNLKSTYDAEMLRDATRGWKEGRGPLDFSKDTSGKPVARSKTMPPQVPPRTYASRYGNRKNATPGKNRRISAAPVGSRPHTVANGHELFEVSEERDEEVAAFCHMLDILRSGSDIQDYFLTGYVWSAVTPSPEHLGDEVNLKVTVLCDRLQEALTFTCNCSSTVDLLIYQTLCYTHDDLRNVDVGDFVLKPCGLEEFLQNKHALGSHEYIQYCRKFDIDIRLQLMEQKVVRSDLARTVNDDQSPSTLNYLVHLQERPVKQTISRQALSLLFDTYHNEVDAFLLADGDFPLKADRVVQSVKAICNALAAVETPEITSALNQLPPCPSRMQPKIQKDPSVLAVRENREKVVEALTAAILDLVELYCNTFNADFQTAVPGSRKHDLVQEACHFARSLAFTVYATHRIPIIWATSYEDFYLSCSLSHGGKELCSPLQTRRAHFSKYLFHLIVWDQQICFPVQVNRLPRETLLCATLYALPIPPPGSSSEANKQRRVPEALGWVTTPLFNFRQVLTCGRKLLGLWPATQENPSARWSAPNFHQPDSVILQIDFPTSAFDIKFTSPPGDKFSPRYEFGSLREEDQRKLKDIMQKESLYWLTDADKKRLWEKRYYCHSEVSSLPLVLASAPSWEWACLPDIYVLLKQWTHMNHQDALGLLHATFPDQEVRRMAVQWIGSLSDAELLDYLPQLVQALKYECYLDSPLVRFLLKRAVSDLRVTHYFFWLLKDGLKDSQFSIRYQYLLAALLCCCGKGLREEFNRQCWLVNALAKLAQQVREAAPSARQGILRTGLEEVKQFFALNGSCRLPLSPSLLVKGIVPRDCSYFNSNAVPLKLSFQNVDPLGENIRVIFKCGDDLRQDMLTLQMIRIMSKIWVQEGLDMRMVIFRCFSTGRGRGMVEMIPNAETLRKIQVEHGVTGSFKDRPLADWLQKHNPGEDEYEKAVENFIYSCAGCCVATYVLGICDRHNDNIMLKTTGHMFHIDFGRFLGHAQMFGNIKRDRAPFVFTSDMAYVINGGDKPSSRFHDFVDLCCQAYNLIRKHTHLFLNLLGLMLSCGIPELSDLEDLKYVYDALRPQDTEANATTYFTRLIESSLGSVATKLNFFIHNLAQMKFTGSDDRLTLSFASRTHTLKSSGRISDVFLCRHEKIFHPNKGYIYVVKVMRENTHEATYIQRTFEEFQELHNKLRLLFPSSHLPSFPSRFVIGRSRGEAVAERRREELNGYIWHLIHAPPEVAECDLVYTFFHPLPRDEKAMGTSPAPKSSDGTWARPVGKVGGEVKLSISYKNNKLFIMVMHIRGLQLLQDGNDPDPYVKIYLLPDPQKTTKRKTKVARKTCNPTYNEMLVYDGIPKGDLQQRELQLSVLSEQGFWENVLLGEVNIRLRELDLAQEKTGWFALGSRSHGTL
Description: as §1

DNA-PK = DNA-PK (Homo sapiens, UniProt P78527)
Description: as §1

FGFR1 = biological target: T14, FGFR1 (Homo sapiens, UniProt P11362)
T14 construct: purchased Life Technologies
Description: as §1

PDK1 = PDK1 (Homo sapiens, UniProt O15530)
PDK1, sequence (O15530 whole entry): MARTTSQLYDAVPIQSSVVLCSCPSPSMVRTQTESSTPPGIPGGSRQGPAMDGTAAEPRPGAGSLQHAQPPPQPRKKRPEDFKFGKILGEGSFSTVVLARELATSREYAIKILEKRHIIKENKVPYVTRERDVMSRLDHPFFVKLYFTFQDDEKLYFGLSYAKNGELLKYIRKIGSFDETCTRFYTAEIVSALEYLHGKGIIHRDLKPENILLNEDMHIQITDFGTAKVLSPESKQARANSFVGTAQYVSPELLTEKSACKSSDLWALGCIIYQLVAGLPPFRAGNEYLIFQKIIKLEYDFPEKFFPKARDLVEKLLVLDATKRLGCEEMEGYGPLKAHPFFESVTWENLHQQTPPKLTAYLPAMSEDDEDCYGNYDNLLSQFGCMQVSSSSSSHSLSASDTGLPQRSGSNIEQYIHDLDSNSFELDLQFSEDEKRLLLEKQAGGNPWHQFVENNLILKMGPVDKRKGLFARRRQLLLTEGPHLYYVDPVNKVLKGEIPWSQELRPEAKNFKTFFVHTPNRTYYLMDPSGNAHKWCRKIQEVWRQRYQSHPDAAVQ
Description: as §1

AKT1 (PKB alpha) = AKT1 (PKB alpha) (Homo sapiens, UniProt P31749)
Description: as §1

AKT3 (PKB gamma) = AKT3 (PKB gamma) (Homo sapiens, UniProt Q9Y243)
Description: as §1

AMPK A1/B1/G1 = AMPK A1/B1/G1 (Homo sapiens, UniProt P54619+Q13131+Q9Y478)
Description: as §1

LYN A = LYN A (Homo sapiens, UniProt P07948)
LYN A, sequence (P07948 whole entry): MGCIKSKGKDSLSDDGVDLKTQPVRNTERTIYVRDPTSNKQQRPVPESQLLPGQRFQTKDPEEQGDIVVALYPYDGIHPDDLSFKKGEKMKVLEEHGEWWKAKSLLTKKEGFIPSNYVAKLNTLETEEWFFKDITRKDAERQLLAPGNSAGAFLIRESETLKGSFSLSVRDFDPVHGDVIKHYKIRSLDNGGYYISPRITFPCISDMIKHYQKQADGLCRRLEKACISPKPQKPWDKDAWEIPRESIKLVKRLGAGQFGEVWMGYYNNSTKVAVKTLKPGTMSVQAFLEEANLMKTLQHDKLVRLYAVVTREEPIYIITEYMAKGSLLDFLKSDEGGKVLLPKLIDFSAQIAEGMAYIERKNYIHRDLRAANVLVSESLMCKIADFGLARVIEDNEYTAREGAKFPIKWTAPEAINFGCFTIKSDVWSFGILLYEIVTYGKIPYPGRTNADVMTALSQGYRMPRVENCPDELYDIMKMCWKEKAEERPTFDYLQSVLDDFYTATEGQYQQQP
Description: as §1

EGFR (ErbB1) = biological target: T15, EGFR (ErbB1) (Homo sapiens, UniProt P00533)
T15 construct: purchased Life Technologies
Description: as §1

AKT2 (PKB beta) = AKT2 (PKB beta) (Homo sapiens, UniProt P31751)
Description: as §1

ERBB2 (HER2) = biological target: T16, ERBB2 (HER2) (Homo sapiens, UniProt P04626)
T16 construct: purchased Life Technologies
Description: as §1

What does the source list for `Cc1cc2c(cc1C)[n+](Cc1ccccc1Br)cn2Cc1ccc2c(c1)CCO2.[Br-]` [B591, 3-(2-bromobenzyl)-1-((2,3-dihydrobenzofuran-5-yl)methyl) -5,6-dimethyl-1H-benzo[d]imidazol-3-ium bromide]?
IC50 (FGFR4): > 500 µM; IC50 (PIK3C2A (PI3K-C2 alpha)): 177 µM; IC50 (PDGFRB (PDGFR beta)): > 500 µM; IC50 (EPHB1): > 500 µM; IC50 (PRKCQ (PKC theta)): > 500 µM; IC50 (EPHA2): > 500 µM; IC50 (PTK2 (FAK)): > 500 µM; IC50 (PRKCZ (PKC zeta)): > 500 µM; IC50 (JAK1): > 500 µM; IC50 (AMPK A2/B1/G1): > 500 µM; IC50 (FGFR2): > 500 µM; IC50 (EPHA8): > 500 µM; IC50 (SRC): > 500 µM; IC50 (PIK3C3 (hVPS34)): 102 µM; IC50 (FRAP1 (mTOR)): > 500 µM; IC50 (KDR (VEGFR2)): > 500 µM; IC50 (EPHA1): > 500 µM; IC50 (GSK3B (GSK3 beta)): > 500 µM; IC50 (LYN B): > 500 µM; IC50 (FGFR3): > 500 µM; IC50 (RPS6KB1 (p70S6K)): > 500 µM; IC50 (PDGFRA (PDGFR alpha)): > 500 µM; IC50 (PIK3C2B (PI3K-C2 beta)): 91 µM; IC50 (DNA-PK): 448 µM; IC50 (FGFR1): > 500 µM; IC50 (PDK1): > 500 µM; IC50 (AKT1 (PKB alpha)): > 500 µM; IC50 (AKT3 (PKB gamma)): > 500 µM; IC50 (AMPK A1/B1/G1): > 500 µM; IC50 (LYN A): > 500 µM; IC50 (EGFR (ErbB1)): > 500 µM; IC50 (AKT2 (PKB beta)): > 500 µM; IC50 (ERBB2 (HER2)): > 500 µM
